Entries after “also recorded” stand apart in the source; their conditions may differ.
Key:
OCI-AML3 cells = assay: Induction of apoptosis by cleaved caspase-3 cytometry, combination with IAP antagonist; format: cell-based, human; settings: 0.1 μM, 72 h
Method: Cleaved caspase-3 staining was recorded in the FL1 (green) channel, with unstained and DMSO control wells being used to set the gated stained and unstained cell populations—allowing the percentage of cells that are apoptotic to be calculated.

MV4-11 cells [1] = assay: Apoptosis assay by cytometry, MV4-11 overexpressing SKP2; format: cell-based, human; settings: MV4-11 SKP2 OE, 48-hour treatment with 2 different concentrations
Method: (§1) Precision LentiORF Transduction:
(§2) Precision LentiORF Lentiviral Transduction Particles (Cat. OHS5900-224629438, Dharmacon, UK) were used to overexpress SKP2 in the MV4-11 AML cell line. Stable gene overexpression was established by cellular resistance to blasticidin (5 μg/ml) and was confirmed at the protein level by western blot. The Precision LentiORF control empty vector (Dharmacon, UK) served as a negative control.
(§3) Apoptosis Assay by Cytometry
(§4) The cell lines were plated out in 6-well plates at 0.5×10^6 cells/ml (2 ml/well) the day before treatment and allowed to recover overnight in a humidified 5% CO2/air incubator at 37° C. […] Briefly, the cells were resuspended with the Annexin V-binding buffer and stained with Annexin V-conjugate. Samples were incubated for 20 min at room temperature in the dark. After washing with the Annexin V-binding buffer, the cells were analyzed with a flow cytometer.
(§5) For caspase 3/7 staining CellEvent™ Caspase 3/7 Green reagent (Life Technologies), a fluorogenic substrate for activated caspase-3 and -7 was used according to the manufacturer's protocol. The cells were incubated with 5 μM of substrate for 30 min at room temperature and then analyzed with a flow cytometer.

[2] = tested on: acute myeloid leukemia blasts isolated from patients; assay: Primary AML blasts sensitivity, 24 h apoptosis assay (Annexin V/PI); format: cell-based, human; settings: 13 primary AML samples, two concentrations
Method: Low SKP2 expression is a biomarker for sensitivity of AML to MDM2 antagnists in patient-derived samples.
Evaluation of Primary AML Blasts Sensitivity to Compound 1
Primary frozen AML samples were purchased from NBS Biobank (Moscow, Russia). 13 primary AML samples with high blast content (>80%) were cultured in selected expansion media composed by StemSpan SFEM II media (Stemcell, #09605), 1× StemSpan CD34+ expansion supplement (Stemcell, #02691), 2% FBS and 1% Penicillin/Streptomycin.
Evaluation of SKP2 Protein Expression on Primary AML Blasts
Capillary Western analyses were performed using the ProteinSimple Wes System (San Jose, CA, USA). Antibodies used were specific for SKP2 (#4358) and TXN1 (#2429) as loading control. Samples were diluted with 0.1× Sample Buffer. Then 4 parts of diluted sample were combined with 1 part 5× Fluorescent Master Mix (containing 5× sample buffer, 5× fluorescent standard, and 200 mM DTT) and heated at 95° C. for 5 min. After this denaturation step, the prepared samples, blocking reagent, primary antibodies (1:10 dilution for SKP2, 1:100 for TXN1), HRP-conjugated secondary antibodies and chemiluminescent substrate were dispensed into designated wells in an assay plate. A biotinylated ladder provided molecular weight standards for each assay. […]

MV4-11 cells [3] = assay: Alamar Blue proliferation assay, MV4-11 overexpressing SKP2 vs control; format: cell-based, human; settings: MV4-11 SKP2 OE compared to control
Method: as §1, §2
The number of viable cells was determined by Alamar Blue assay (Bio-Rad, Irvine, CA, USA). All cell lines were grown and assayed in RPMI-1640+10% FBS medium.
Compounds were diluted first in DMSO and then into serum-free medium, before addition to triplicate wells of the cultured cells to give a 0.1% DMSO final concentration. […] Twenty μl of Alamar Blue™ (AbD Serotec/Bio-Rad) was added to each well and plates were then incubated for 4-6 h at 37° C. in an atmosphere of 5% CO2 and air. Plates were then read at 535 nm (excitation) and 590 nm (emission) on a SpectraMax Gemini reader (Molecular Devices, San Jose, CA, USA).

AML cell lines = assay: Activated caspase-3 by cytometry in AML cell lines; format: cell-based, human
Method: Levels of Compound 1-induced apoptosis were measured as percentage of cells with activated caspase-3. […] The extent of Compound 1-induced apoptosis is not predicted from the IC50 values obtained from the Alamar Blue proliferation assays, thus emphasising the impact of grouping cell lines specifically based on their apoptotic potential for subsequent analyses described in the following section.
Activated Caspase-3 by Cytometry
The cell lines were plated out in 6-well plates at 0.5×10^6 cells/ml (2 ml/well) the day before treatment and allowed to recover overnight in a humidified 5% CO2/air incubator at 37° C. […] 200 μl of each sample was added to duplicate wells of a 96-well plate. To one of the two wells, 50 μl of serum-free medium was added as an unstained control. […] The plate was incubated in the dark for 30 minutes before measuring fluorescent stained cells in a Guava EasyCyte HT cytometer (Merck Millipore, Kenilworth, NJ, USA). Activated caspase-3 staining was recorded in the GRN-B (green) channel, with unstained and DMSO control wells being used to set the gated stained and unstained cell populations—allowing the percentage of cells that are apoptotic to be calculated.

[4] = tested on: MV4-11 tumour cells in the bone marrow; assay: In vivo systemic AML mouse model, bone marrow flow cytometry; parameters: species or system NSG mice; settings: 14 days after treatment
Method: Thus, overexpression of SKP2 is able to turn a sensitive AML cell line into a resistant cell line in vivo, providing evidence that low SKP2 is an important biomarker for sensitivity to MDM2 antagonism.
(§6) In Vivo Systemic AML Mouse Model
(§7) Female NSG Mice (6-8 weeks old) were bought from Jackson Laboratories (Bar Harbor, ME). Animals were given an intravenous injection of 5×10^6 MV4-11 cells and tumour engraftment was assessed by PCR for circulating human DNA. Mice were randomized to treatment groups based on systemic tumour burden as detected by PCR. Leukemic burden was then monitored weekly by serial bleeding followed by PCR. Mice were observed daily and euthanized humanely upon signs of terminal illness (hind limb paralysis, inability to eat/drink, moribund lethargy).
Bone Marrow Flow Cytometry
Bone marrow cells were stained with PE-CF594 Anti-Human CD45 (BD 562312), BB515 Anti-Mouse CD45 (BD 564590) and DAPI. The amount of human cells engrafted in the bone marrow is expressed as % of viable mouse CD45+ cells.

MV4-11 cells [5] = assay: In vivo systemic AML mouse model, PCR for circulating human DNA; settings: MV4-11 empty vector (absence of SKP2 overexpression); NSG mice
Method: In addition to assessing the effect of SKP2 overexpression and knockdown in vitro, the impact of SKP2 on cancer proliferation was evaluated in vivo, using a disseminated AML model based on the MV4-11 cell line. To generate a systemic in vivo model of AML, NSG mice were injected in the tail vein with MV4-11 cells engineered to overexpress SKP2 or empty vector. Systemic tumour burden was assessed by PCR for circulating human DNA.
as §6, §7
PCR for Circulating Human DNA
Blood samples were collected in heparinized capillary tubes and samples were stored at −80° C. until analysis. DNA was extracted using the DNeasy Blood & Tissue Kit (Qiagen, Cat: 69504) and PCR for human DNA was run using TaqMan™ Genotyping Master Mix (ThermoFisherScientific Catalog number: 4371355) using the following primers: […]

OCI-AML3 AML cell line = assay: Apoptosis after SKP2 knockdown in a non-apoptotic AML cell line; format: cell-based, human
Method: shRNA Lentiviral Transduction:
MISSION® shRNA Lentiviral Transduction Particles (Sigma Aldrich, Pool, UK) were used to knockdown SKP2 in the OCI-AML3 AML cell line. Stable gene knockdown was established by cellular resistance to puromycin (1 μg/ml) and was confirmed at the protein level by western blot.
as §3, §4, §5

SJSA-1 = assay: Protocol B: SJSA-1 CellTiter-Glo Luminescent Cell Viability Assay; settings: Homo sapiens, SJSA-1, read-out: SJSA1 IC50 (μM) (Protocol B)

Row | Structure (SMILES) | level of apoptosis (cleaved caspase-3), single agent (OCI-AML3 cells) | level of apoptosis (cleaved caspase-3), single agent (OCI-AML3 cells; listed as Compund 1) | effect of SKP2 overexpression on apoptosis / cell death (MV4-11 cells [1]) | sensitivity of SKP2 low blasts compared with SKP2 high blasts [2] | effect of SKP2 overexpression on cytotoxicity / sensitivity (MV4-11 cells [3]) | apoptosis (cells with activated caspase-3) (AML cell lines; HNT-34, OCI-AML3, ML-2, GDM-1 (non-apoptotic), 48-hour treatment with 100 nM) [%] | cells staining positive for activated caspase-3 (AML cell lines; MV4-11, EOL-1, Molm-13, OCI-AML-2 and BDCM (apoptotic), 48-hour treatment with 100 nM) [%] | increase in activated caspase-3 (AML cell lines; panel of 12 AML cell lines, negative control KG-1, TP53 mutant) | bone marrow tumour burden (FACS) ([4]; SKP2 overexpressed) | leukemic tumour cells in the bone marrow (FACS) ([4]; absence of SKP2 overexpression) | systemic tumour burden (circulating human DNA) (MV4-11 cells [5]) | effect of SKP2 knockdown on cytotoxicity (OCI-AML3 AML cell line; non-apoptotic AML cell line) | increase of apoptosis on SKP2 knockdown compared to control (no SKP2 knockdown) (OCI-AML3 AML cell line; non-apoptotic AML cell line (high basal SKP2), 0.1 μM) | IC50 (SJSA-1) [µM]
1 | CC[C@@](O)(c1cc(F)c2c(c1)C(=O)N([C@H](c1ccc(Cl)cc1)[C@H](C)C(=O)O)[C@@]2(OC)c1ccc(Cl)cc1)C1CCOCC1 [Compound 1, (2S,3S)-3-(4-chlorophenyl)-3-[(1R)-1-(4-chlorophenyl)-7-fluoro-5-[(1S)-1-hydroxy-1-(oxan-4-yl)propyl]-1-methoxy-3-oxo-2,3-dihydro-1H-isoindol-2-yl]-2-methylpropanoic acid] | did not induce a high level of apoptosis | does not induce substantial levels of cell death by apoptosis | reduces Compound 1-dependent cell death; also recorded: strong reduction in apoptosis | more sensitive | reduces Compound 1-induced cytotoxicity; also recorded: resistant | < 30 | > 30 | observed in all cell lines except the negative control | does not reduce the number of leukemic cells; also recorded: no effects | reduces the number of leukemia cells; also recorded: significant decrease | only low levels of circulating human DNA | increases Compound 1-induced cytotoxicity | about 30% | –
2 | [2H]C([2H])(O)C1(C([2H])([2H])O[C@]2(c3ccc(Cl)cc3)c3c(F)cc(C(O)(CC)c4cn(C)cn4)cc3C(=O)N2Cc2ccc(C#N)cn2)CC1 (some centres unmarked) [Example 440] | – | – | – | – | – | – | – | – | – | – | – | – | – | 1.9
